Reference: ChEMBL document CHEMBL5385846, “Discovery and development of palmatine analogues as anti-NASH agents by activating farnesoid X receptor (FXR)” (Eur J Med Chem, 2023)
Active and inactive are the calls of the source. The calls are words filed in the database; no cut-off is given here.

What was measured:
[1] = Metabolic stability in Sprague-Dawley rat liver microsomes assessed as microsomal intrinsic clearance at 1 micromol/L measured upto 60 mins in presence of NADPH by LC-MS/MS analysis; type: ADME, Microsome; details: dose 1 µmol/L, read-out: CLH
[2] = Metabolic stability in CD-1 mouse liver microsomes assessed as microsomal intrinsic clearance at 1 micromol/L measured upto 60 mins in presence of NADPH by LC-MS/MS analysis; type: ADME, Microsome; details: dose 1 µmol/L, read-out: CLH
[3] = system: Mus musculus; test: Antifibrotic activity in CDAHFD induced non-alcoholic steatohepatitis C57BL/6N mouse model assessed as downregulation of TIMP1 protein expression at 200 mg/kg,po qd administration for 4 weeks by Western blotting analysis; type: functional, organism-based
[4] = Acute toxicity in Kunming mouse assessed as effect on ALT level at 250 to 1000 mg/kg,po administration; type: organism-based; details: in vivo, dose 250-1000 mg/kg
[5] = system: Mus musculus; test: Hepatoprotective activity in CDAHFD induced C57BL/6N mouse liver injury model assessed as reduction in free cholesterol level at 200 mg/kg,po qd administration for 4 weeks; type: functional, organism-based
[6] = Metabolic stability in human liver microsomes assessed as intrinsic clearance at 1 micromol/L measured upto 60 mins in presence of NADPH by LC-MS/MS analysis; type: ADME, Microsome; details: 1 h, 1 µM, dose 1 µmol/L
[7] = system: Mus musculus; test: Antifibrotic activity in CDAHFD induced non-alcoholic steatohepatitis C57BL/6N mouse model assessed as downregulation of MMP2 mRNA expression at 200 mg/kg,po qd administration for 4 weeks by qRT-PCR analysis; type: functional, organism-based
[8] = system: Mus musculus; test: Hepatoprotective activity in CDAHFD induced C57BL/6N mouse liver injury model assessed as decrease in LDL level at 200 mg/kg,po qd administration for 4 weeks; type: functional, organism-based
[9] = system: Rattus norvegicus; test: Antifibrotic activity in bile duct ligation induced Sprague-Dawley rat liver fibrosis model assessed as downregulation of NTCP protein expression at 200 mg/kg,po qd administration for 14 days by Western blotting analysis; type: functional, organism-based; details: time 14.0 day
[10] = system: THP-1; test: Anti-inflammatory activity in PMA differentiated human THP-1 cells assessed as downregulation of IL-1beta protein expression at 5 micromol/L incubated for 4 hrs followed by LPS and Nigericin addition for 3.5 hrs by Western blotting analysis; type: functional, cell-based; details: dose 5.0 µmol/L, time 7.5 hrs
[11] = system: Rattus norvegicus; test: Antifibrotic activity in bile duct ligation induced Sprague-Dawley rat liver fibrosis model assessed as upregulation of FXR protein expression at 200 mg/kg,po qd administration for 14 days by Western blotting analysis; type: functional, organism-based; details: time 14.0 day
[12] = system: LX-2; test: Antifibrotic activity in TGF-beta1 induced human LX2 cells assessed as downregulation of alpha-SMA mRNA expression incubated for 24 hrs by qRT-PCR analysis; type: functional, cell-based
[13] = system: Mus musculus; test: Hepatoprotective activity in CDAHFD induced C57BL/6N mouse liver injury model assessed as reduction in hepatic steatosis at 200 mg/kg,po qd administration for 4 weeks by hematoxylin and eosin staining based assay; type: functional, organism-based
[14] = system: LX-2; test: Antifibrotic activity in TGF-beta1 induced human LX2 cells assessed as downregulation of TGF-beta1 protein expression incubated for 24 hrs by western blotting analysis; type: functional, cell-based
[15] = system: Mus musculus; test: Hepatoprotective activity in CDAHFD induced C57BL/6N mouse liver injury model assessed as decrease in LDH level at 200 mg/kg,po qd administration for 4 weeks; type: functional, organism-based
[16] = system: THP-1; test: Anti-inflammatory activity in PMA differentiated human THP-1 cells assessed as downregulation of IL-1beta protein expression at 10 micromol/L incubated for 4 hrs followed by LPS and Nigericin addition for 3.5 hrs by Western blotting analysis; type: functional, cell-based; details: dose 10.0 µmol/L, time 7.5 hrs
[17] = system: LX-2; test: Antifibrotic activity in TGF-beta1 induced human LX2 cells assessed as downregulation of alpha-SMA protein expression incubated for 24 hrs by western blotting analysis; type: functional, cell-based
[18] = system: Mus musculus; test: Antifibrotic activity in CDAHFD induced non-alcoholic steatohepatitis C57BL/6N mouse model assessed as downregulation of COL1A1 mRNA expression at 200 mg/kg,po qd administration for 4 weeks by qRT-PCR analysis; type: functional, organism-based
[19] = system: Mus musculus; test: Anti-inflammatory activity in CDAHFD induced C57BL/6N mouse liver injury model assessed as reduction in inflammatory cell infiltration in liver at 200 mg/kg,po qd administration for 4 weeks by hematoxylin and eosin staining based assay; type: functional, organism-based
[20] = system: LX-2; test: Antifibrotic activity in TGF-beta1 induced human LX2 cells assessed as downregulation of COL1A1 protein expression incubated for 24 hrs by western blotting analysis; type: functional, cell-based
[21] = system: Mus musculus; test: Antifibrotic activity in CDAHFD induced non-alcoholic steatohepatitis C57BL/6N mouse model assessed as downregulation of COL1A1 protein expression at 200 mg/kg,po qd administration for 4 weeks by Western blotting analysis; type: functional, organism-based
[22] = system: Rattus norvegicus; test: Antifibrotic activity in bile duct ligation induced Sprague-Dawley rat liver fibrosis model assessed as downregulation of COL1A1 mRNA expression at 200 mg/kg,po qd administration for 14 days by qRT-PCR analysis; type: functional, organism-based; details: time 14.0 day
[23] = system: Mus musculus; test: Anti-inflammatory activity in CDAHFD induced C57BL/6N mouse liver injury model assessed as downregulation of IL-1beta mRNA expression in liver at 200 mg/kg,po qd administration for 4 weeks by qRT-PCR analysis; type: functional, organism-based
[24] = system: Rattus norvegicus; test: Hepatoprotective activity in bile duct ligation induced Sprague-Dawley rat liver injury model assessed as decrease in ALT level at 200 mg/kg,po qd administration for 14 days; type: functional, organism-based; details: time 14.0 day
[25] = system: Mus musculus; test: Anti-inflammatory activity in CDAHFD induced C57BL/6N mouse liver injury model assessed as downregulation of TNF-alpha mRNA expression in liver at 200 mg/kg,po qd administration for 4 weeks by qRT-PCR analysis; type: functional, organism-based
[26] = system: Mus musculus; test: Antifibrotic activity in CDAHFD induced non-alcoholic steatohepatitis C57BL/6N mouse model assessed as downregulation of MMP2 protein expression at 200 mg/kg,po qd administration for 4 weeks by Western blotting analysis; type: functional, organism-based
[27] = system: Rattus norvegicus; test: Antifibrotic activity in bile duct ligation induced Sprague-Dawley rat liver fibrosis model assessed as downregulation of TGF-beta1 mRNA expression at 200 mg/kg,po qd administration for 14 days by qRT-PCR analysis; type: functional, organism-based; details: time 14.0 day
[28] = system: Mus musculus; test: Hepatoprotective activity in CDAHFD induced C57BL/6N mouse liver injury model assessed as decrease in total cholesterol level at 200 mg/kg,po qd administration for 4 weeks; type: functional, organism-based
[29] = system: THP-1; test: Anti-inflammatory activity in PMA differentiated human THP-1 cells assessed as downregulation of caspase-1 protein expression at 10 micromol/L incubated for 4 hrs followed by LPS and Nigericin addition for 3.5 hrs by Western blotting analysis; type: functional, cell-based; details: dose 10.0 µmol/L, time 7.5 hrs
[30] = Acute toxicity in Kunming mouse assessed as lethal dose at po administration; type: organism-based; details: in vivo
[31] = Metabolic stability in Sprague-Dawley rat liver microsomes assessed as compound remaining at 1 micromol/L measured upto 60 mins in presence of NADPH by LC-MS/MS analysis; type: ADME, Microsome; details: dose 1 µmol/L, read-out: Stability
[32] = system: Rattus norvegicus; test: Hepatoprotective activity in bile duct ligation induced Sprague-Dawley rat liver injury model assessed as decrease in total bilirubin level at 200 mg/kg,po qd administration for 14 days; type: functional, organism-based; details: time 14.0 day

COc1cc2c(cc1OC)-c1cc3ccc(OC)c(OCc4cccc(C)c4)c3c[n+]1CC2.[Br-]
microsomal CLint at 1 µM [1]: 188 µL/min/mg | microsomal CLint at 1 µM [2]: 188 µL/min/mg | Activity [3]: Active | Activity [4]: Non-Toxic | Activity [5]: Active | CLint,scaled [6]: 23.4 mL/min/kg | Activity [7]: Active | Activity [8]: Active | Activity [9]: Active | Activity [10]: Active | Activity [11]: Active | Activity [12]: Dose-Dependent Effect | Activity [13]: Active | Activity [14]: Dose-Dependent Effect | Activity [15]: Active | Activity [16]: Active | Activity [17]: Dose-Dependent Effect | Activity [18]: Active | Activity [19]: Active | Activity [20]: Dose-Dependent Effect | Activity [21]: Active | Activity [22]: Active | Activity [23]: Active | Activity [24]: Active | Activity [25]: Active | Activity [26]: Active | Activity [27]: Active | Activity [28]: inactive | Activity [29]: Active | LD50 [30]: > 1000 mg/kg | remaining at 1 h, 1 µM [31]: 0.4% | Activity [32]: Active
